In paper PMC10946813, “Lipophilicity Modulations by Fluorination Correlate with Membrane Partitioning” (Angewandte Chemie (International Ed. in English), 2023):
Values joined by “and” are separate entries in the source; they are usually repeats but may differ in a detail not shown here. Identical values can stand only once. Blank lines part the entries; values can stand above or below the compound they belong to.

How the values were obtained:
[1] = Molar membrane partition coefficient (logKp) by 19F MAS solid-state NMR in lipid vesicles; format: physicochemical; conditions: for Molar Partition Coefficient (logKP): POPC; for logKp Measured as single compound (3.30 mol%): Table 1; for logKp Measured as single compound (3.30 mol%) / logKp Measured as equimolar mixture: POPC bilayers hydrated at 20 % w/v; for increase in logKp: equimolar mixture of 9 and 10 at 3.3 mol % versus compound alone
Experimental: The principle of the method is explained in Figure 2 (with a detailed description of the protocol provided in Supporting Information). The method utilizes ^19F MAS NMR to quantitate the partitioning of the fluorinated compounds between the aqueous and membrane phases. […] Experimentally, it was determined that only moderate spinning speeds (10 kHz) and low power decoupling (10 kHz decoupling field) were required to obtain well resolved spectra, even at these high magnetic fields; with motional processes within the liquid crystalline lipid bilayer averaging the potentially large chemical shielding anisotropy and dipolar couplings experienced by the fluorine spins. The application of low spinning speeds and radiofrequency decoupling fields also reduces sample heating, whilst minimising the pelleting of the vesicles against the rotor wall. The absence of any discernable sidebands, resulting from incomplete averaging, simplifies the analysis, as this precludes the need to integrate the entire family of sidebands.
With knowledge of the number of water ( nW ) and lipid ( nM ) molecules, the molar partition coefficient ( KP) is readily determined.
To determine how the concentration of the compound and bilayer hydration influenced the measured logK P, a systematic study of these parameters was undertaken for compound 10 (Figure S2, Table S1). Samples were prepared where the lipids were hydrated at levels between 10 to 30 %(w/v), a range widely used to study the physical properties of lipid bilayers. […] On the basis of the reproducibility of these figures, all subsequent experiments were conducted at 20 % (w/v) hydration with a compound/lipid ratio of 0.033. In addition to providing excellent reproducibility, these concentrations afforded good signal to noise ratios with sensible spectral acquisition times. […]
(§1) to the r.f. field strength then care should be taken to ensure that the two compounds are similarly excitated. Quantitative data also requires the complete relaxation of the nuclei between scans. For the studies reported here, saturation recovery measurements were performed on each system, with spectra then acquired with a recycle delay of five times T1. It […]
(§2) shorter T1 values than that of the substrate in aqueous solution, mirroring the observation […]
(§3) In addition to more general NMR considerations, care must also be exercised to ensure that the signal intensity, particularly that of the membrane bound state, is not influenced by anisotropic interactions that may be present. Due to the molecular dynamics within the lipid bilayer, many of these interactions are already motionally averaged facilitating their removal.
(§4) The application of low-power (10 kHz) SPINAL-64 decoupling[2] is sufficient to remove the weak scalar and dipolar couplings that are present within the fluid lipid bilayer. Care was taken […]
(§5) linebroadening due to temperature dependent changes in chemical shift. Similarly, data was acquired with both 5 and 10 kHz MAS and no change in isotropic chemical shift was observed […]
(§6) However, increasing the spinning speed from 5 to 10 kHz ensured complete averaging the residual chemical shielding anisotropy and other anisotropic contrbutions to the spectra and the presence of a single isotropic resonance for each population. The absence of any discernable sidebands in spectra acquired at 10 kHz allows the accurate integration of the signal intensity without the need to integrate the entire family of sidebands which would be required for a quantitative analysis.
(§7) Care should be taken when extending this to other compounds where the anisotropy may larger, either due to a larger chemical shielding anisotropy at the fluorine site studied or the application of higher magnetic as this would complicate the signal integration.
Prior to Fourier Transform, data was processed with 1Hz exponential line broadening and zero filled with 16384 points. The resulting spectra was phased and base line corrected. All processing was performed in Matlab using matNMR[5]. […]

[2] = Octanol-water partition coefficient (logP OW), 19F NMR method with reference compound
[3] = Molar membrane partition coefficient (logKp) by 19F MAS NMR in POPC/cholesterol bilayers; format: physicochemical; conditions: for Molar Partition Coefficient (logKP): Table S3, POPC, 20% (w/v), substrate 3.3 mol%; for fall in logKP: increasing cholesterol up to 50 mol % versus pure POPC membranes
From the text: A major advantage of the method presented here compared to logP determination is that it can be applied to membranes of arbitrary complexity, enabling the analysis of the influence of such properties as headgroup size/charge and chain length/saturation. […] As an example of this kind of investigation, a mixed lipid system was employed. In particular, we investigated how increasing concentrations of cholesterol, a commonly found sterol in eukaryotic cell membranes, influenced the membrane partitioning of 9 and 10 (Figure 5, Table S3). […] The fall in logK P mirrors earlier studies where a reduction in membrane partitioning for small molecules has been observed.[19] This reduction has been attributed to the […] of the acyl chain packing and their favourable interactions with the cholesterol.[20] […]
as §1, §2, §3, §4, §5, §6, §7
Prior to Fourier Transform, data was processed with 1Hz exponential line broadening and zero filled with 16384 points. The resulting spectra was phased and base line corrected. All processing was performed in Matlab using matNMR[5]. The subsequent resonances where fitted to Lorentzian peaks using custom scripts in Matlab which are available from the authors.
1.4 Calculation of the molar membrane partition coefficients
In the slow exchange limit the molar partition coefficient can then be calculated as:
K = n",$/n$ = C",$/’(’)*.n% = I",$ . n%
Where C",+ and C",$ are the concentrations of the substrate in the membrane and aqueous phases respectively and n", n$ and n% are the number of substrate, lipid and water molecules respectively. The ratio C",$/’(’)*/C",%/’(’)* can be determined directly from the ratio of the integrals from the signals arising from the lipidic and aqueous phases (See Figure 2, main paper), whilst the ratio of n%/n$ represents the ratio of water to lipid molecules in the membrane, the degree of hydration.
2 Influence of exchange between the membrane and aqueous phase on 19F MAS-NMR Lineshape (Figure S1)
The influence of chemical exchange is well characterised in the liquid state, however […]

[4] = Table S2, one 19F resonance evaluated
[5] = Table S2, glycosides, first listed 19F resonance
[6] = Table S2, glycosides, second listed 19F resonance
[7] = individual experiment (octanol/water), one of triplicate
[8] = octanol/water, Average logP, triplicate
[9] = octanol/water, Error (mean logP with standard deviation), triplicate, three decimals

Molar Partition Coefficient (logKP) [1, 4]: 1.82 ± 0.06
Structure (SMILES): OC[C@H](F)C[C@@H](F)CO (single isomer, unassigned) [ent-15]

logKp Measured as single compound (3.30 mol%) [1]: 2.40±0.07
Molar Partition Coefficient (logKP) [1, 4]: 2.40 ± 0.07
logKp Measured as equimolar mixture ([1]; mixture 10+13, 3.30 mol% each): 2.50±0.10
Structure (SMILES): OCC(F)(F)CC(F)(F)CO [compound 13]

Molar Partition Coefficient (logKP) [1, 4]: 2.01 ± 0.01
Structure (SMILES): OCC(F)CC(F)(F)CO (stereo not drawn) [compound 14]

Molar Partition Coefficient (logKP) [1, 4]: 1.85 ± 0.10
Structure (SMILES): OC[C@@H](F)C[C@H](F)CO [compound 15]

Molar Partition Coefficient (logKP) [1, 4]: 1.71 ± 0.10
Structure (SMILES): OC[C@@H](F)C[C@@H](F)CO [compound 16]

Continued, compound first:

Structure (SMILES): OCC1CC1(F)F (stereo not drawn) [compound 1]
Molar Partition Coefficient (logKP) [1, 4]: 2.54 ± 0.08

Structure (SMILES): OC[C@H]1C[C@@H]1F [compound 2]
Molar Partition Coefficient (logKP) [1, 4]: 2.17 ± 0.05

Structure (SMILES): OCC1(F)CC1 [compound 3]
Molar Partition Coefficient (logKP) [1, 4]: 2.08 ± 0.01

Structure (SMILES): OC[C@@H]1C[C@@H]1F [compound 4]
Molar Partition Coefficient (logKP) [1, 4]: 2.02 ± 0.04

Structure (SMILES): CO[C@H]1O[C@H](CF)[C@@H](F)[C@H](O)[C@H]1O [compound 5]
Molar Partition Coefficient (logKP) [1, 5]: 1.98 ± 0.02
Molar Partition Coefficient (logKP) [1, 6]: 1.98 ± 0.03
logP [2, 7]: -0.698 and -0.708 and -0.717
logP [2, 8]: -0.71
logP [2, 9]: -0.707

Structure (SMILES): CO[C@@H]1O[C@H](CF)[C@@H](F)[C@H](O)[C@H]1O [compound 6]
Molar Partition Coefficient (logKP) [1, 5]: 1.93 ± 0.16
Molar Partition Coefficient (logKP) [1, 6]: 1.95 ± 0.15
logP [2, 7]: -1.036 and -1.054 and -1.053
logP [2, 8]: -1.05
logP [2, 9]: -1.05

Structure (SMILES): CO[C@H]1O[C@H](CF)[C@H](F)[C@H](O)[C@H]1O [compound 7, methyl 4,6-dideoxy-4,6-difluoro-α-D-galactopyranoside]
Molar Partition Coefficient (logKP) [1, 5]: 1.80 ± 0.05
Molar Partition Coefficient (logKP) [1, 6]: 1.87 ± 0.14
logP [2, 7]: -0.905 and -0.898
logP [2, 8]: -0.9
logP [2, 9]: -0.902

Structure (SMILES): CO[C@@H]1O[C@H](CF)[C@H](F)[C@H](O)[C@H]1O [compound 8, methyl 4,6-dideoxy-4,6-difluoro-β-D-galactopyranoside]
Molar Partition Coefficient (logKP) [1, 5]: 1.69 ± 0.00
Molar Partition Coefficient (logKP) [1, 6]: 1.64 ± 0.06
logP [2, 7]: -1.257 and -1.242 and -1.253
logP [2, 8]: -1.25
logP [2, 9]: -1.25

Structure (SMILES): OCCCC(F)(F)CO [compound 9]
logKp Measured as single compound (3.30 mol%) [1]: 2.01±0.02
Molar Partition Coefficient (logKP) [1, 4]: 2.01 ± 0.02
Molar Partition Coefficient (logKP) ([1]; Table S3, membrane cholesterol 0 mol %, 20% (w/v), substrate 3.3 mol%): 2.01 ± 0.02
increase in logKp [1]: 0.2 units
logKp Measured as equimolar mixture ([1]; mixture 9+10, 1.65 mol% each): 1.99±0.09
logKp Measured as equimolar mixture ([1]; mixture 9+10, 3.30 mol% each): 2.18±0.07
Molar Partition Coefficient (logKP) ([3]; membrane cholesterol 25 mol %): 1.87 ± 0.03
Molar Partition Coefficient (logKP) ([3]; membrane cholesterol 50 mol %): 1.77 ± 0.02
fall in logKP [3]: 0.24

Structure (SMILES): OCCC(F)(F)CCO [compound 10]
logKp Measured as single compound (3.30 mol%) [1]: 1.83±0.04 and 1.83±0.11
logKP ([1]; Table S1, hydration 10 % w/v, substrate/lipid 0.010 mole/mole): 1.73
logKP ([1]; Table S1, hydration 10 % w/v, substrate/lipid 0.033 mole/mole): 1.91
logKP ([1]; Table S1, hydration 10 % w/v, substrate/lipid 0.100 mole/mole): 1.81
logKP ([1]; Table S1, hydration 20 % w/v, substrate/lipid 0.010 mole/mole): 1.97
logKP ([1]; Table S1, hydration 20 % w/v, substrate/lipid 0.033 mole/mole, mean value (n=3)): 1.83
logKP ([1]; Table S1, hydration 20 % w/v, substrate/lipid 0.100 mole/mole): 1.95
logKP ([1]; Table S1, hydration 30 % w/v, substrate/lipid 0.010 mole/mole): 1.81
logKP ([1]; Table S1, hydration 30 % w/v, substrate/lipid 0.033 mole/mole): 1.69
logKP ([1]; Table S1, hydration 30 % w/v, substrate/lipid 0.100 mole/mole): 1.85
logKP, Mean ([1]; Table S1, mean over all hydrations (10-30 % w/v) and substrate/lipid ratios (0.010-0.100)): 1.85
Molar Partition Coefficient (logKP) [1, 4]: 1.83 ± 0.04
mean logKP ([1]; compound concentration 1 to 10 mol % (with respect to total lipid), mean across all levels of hydration): 1.85±0.02
increase in logKp [1]: 0.2 units
mean logKP ([1]; lipids hydrated at 10 to 30 %(w/v), mean across the range of compound concentrations studied): 1.85±0.06
logKp Measured as equimolar mixture ([1]; mixture 9+10, 1.65 mol% each): 1.84±0.01
logKp Measured as equimolar mixture ([1]; mixture 9+10, 3.30 mol% each): 2.01±0.04
logKp Measured as equimolar mixture ([1]; mixture 10+13, 3.30 mol% each): 1.88±0.11
Kp at 0.01 mole/mole substrate/lipid ([1]; multilamellar POPC vesicles, Table S1, hydration 10 % w/v, substrate/lipid 0.010 mole/mole): 53.4
Kp at 0.033 mole/mole substrate/lipid ([1]; multilamellar POPC vesicles, Table S1, hydration 10 % w/v, substrate/lipid 0.033 mole/mole): 81.8
Kp at 0.1 mole/mole substrate/lipid ([1]; multilamellar POPC vesicles, Table S1, hydration 10 % w/v, substrate/lipid 0.100 mole/mole): 64.5
Kp at 0.01 mole/mole substrate/lipid ([1]; multilamellar POPC vesicles, Table S1, hydration 20 % w/v, substrate/lipid 0.010 mole/mole): 93.9
Kp at 0.033 mole/mole substrate/lipid ([1]; multilamellar POPC vesicles, Table S1, hydration 20 % w/v, substrate/lipid 0.033 mole/mole): 67.6
Kp at 0.1 mole/mole substrate/lipid ([1]; multilamellar POPC vesicles, Table S1, hydration 20 % w/v, substrate/lipid 0.100 mole/mole): 89.4
Kp at 0.01 mole/mole substrate/lipid ([1]; multilamellar POPC vesicles, Table S1, hydration 30 % w/v, substrate/lipid 0.010 mole/mole): 65.3
Kp at 0.033 mole/mole substrate/lipid ([1]; multilamellar POPC vesicles, Table S1, hydration 30 % w/v, substrate/lipid 0.033 mole/mole): 49.2
Kp at 0.1 mole/mole substrate/lipid ([1]; multilamellar POPC vesicles, Table S1, hydration 30 % w/v, substrate/lipid 0.100 mole/mole): 70.7
Kp ([1]; multilamellar POPC vesicles, Table S1, mean over all hydrations (10-30 % w/v) and substrate/lipid ratios (0.010-0.100)): 71.6
Molar Partition Coefficient (logKP) ([3]; membrane cholesterol 25 mol %): 1.74 ± 0.02
Molar Partition Coefficient (logKP) ([3]; membrane cholesterol 50 mol %): 1.68 ± 0.05
fall in logKP [3]: 0.17

Structure (SMILES): OCCC(F)CCO [compound 11]
Molar Partition Coefficient (logKP) [1, 4]: 1.68 ± 0.08
